Patent publication US20160045505A1, “COMPOUNDS AND COMPOSITIONS FOR THE TREATMENT OF PARASITIC DISEASES” (NOVARTIS AG, priority 2013, published 2016)
pEC50: −log10 of the molar value. Where two headings read alike, the source gives them in different places.

Experiments:
[1] = tested on: L. donovani HU3 strain in mouse peritoneal macrophages; assay: Assay for proliferation of Leishmania parasites in infected mouse peritoneal macrophages (SybrGreen staining, high-content imaging, 5 days); assay type: cell-based, Leishmania donovani; conditions: Leishmania donovani, Peritoneal macrophage, L. donovani in mouse peritoneal macrophages, inhibition of proliferation; read-out: L. donovani Macrophage EC50
[2] = tested on: Trypanosoma cruzi amastigotes (Tulahuen strain expressing Lac-Z) cultured in 3T3 fibroblast cells; assay: microbe, parasite or virus in culture; assay type: cell-based; conditions: Trypanosoma cruzi, TULAHUEN
[3] = tested on: Leishmania donovani axenic amastigote parasites; assay: Leishmania donovani axenic amastigote proliferation assay (Cell TiterGlo luminescence, 2 day incubation); assay type: cell-based; conditions: Leishmania donovani, axenic amastigotes, inhibition of proliferation; read-out: L. donovani amastigotes EC50
[4] = Fibroblast, T. cruzi amastigotes in 3T3 fibroblast cells, inhibition of proliferation, read-out: T cruzi EC50

Structure (SMILES) | pEC50 [1] | pEC50 [2, 4] | pEC50 ([2]; NIH3T3, 144 h, T. cruzi amastigotes in 3T3 cells, 6 day incubation, read-out: EC50) | pEC50 [3]
CC(C)OC(=O)Nc1cnc2nc(-c3cc(NC(=O)c4ccc(F)o4)ccc3Cl)cn2c1 [Compound 1, Propan-2-yl N-{2-[2-chloro-5-(5-fluorofuran-2-amido)phenyl]imidazo[1,2-a]pyrimidin-6-yl}carbamate] | 6.61 | 7.52 | 7.52 | 7.06
CC(C)OC(=O)Nc1cnc2nc(-c3cc(NC(=O)N4CCCC4)ccc3Cl)cn2c1 [Compound 2, propan-2-yl N-(2-{2-chloro-5-[(pyrrolidin-1-yl)carbonylamino]phenyl}imidazo[1,2-a]pyrimidin-6-yl)carbamate] | 6.57 | 6.61 |  | 7.02
CC(C)OC(=O)Nc1cnc2nc(-c3cccc(NC(=O)c4ccc(F)o4)c3)cn2c1 [Compound 3, propan-2-yl N-{2-[3-(5-fluorofuran-2-amido)phenyl]imidazo[1,2-a]pyrimidin-6-yl}carbamate] | 6.37 | 6.29 |  | 6.62
CC(C)OC(=O)Nc1cnc2nc(-c3cc(NC(=O)c4ccc(C#N)o4)ccc3Cl)cn2c1 [Compound 48] | 6.86 | 6.80 |  | 7.09
CC(C)OC(=O)Nc1cnc2nc(-c3cc(NC(=O)c4cnc(Cl)s4)ccc3Cl)cn2c1 [Compound 51] | 5.03 | 5.83 |  | 5.42
COC(C)C(=O)Nc1ccc(Cl)c(-c2cn3cc(NC(=O)OC(C)C)cnc3n2)c1 (stereo not shown) [Compound 54] | 4.84 | 5.89 |  | 5.71
CC(C)OC(=O)Nc1cnc2nc(-c3cc(NC(=O)C4CCCO4)ccc3Cl)cn2c1 (stereo not shown) [Compound 55] | 4.57 | 5.38 |  | 5.14
CC(=O)OC(C)C(=O)Nc1ccc(Cl)c(-c2cn3cc(NC(=O)OC(C)C)cnc3n2)c1 (stereo not shown) [Compound 56] | < 4.30 | 4.94 |  | 4.72
CC(C)OC(=O)Nc1cnc2nc(-c3cc(NC(=O)C4CCCCO4)ccc3Cl)cn2c1 (stereo not shown) [Compound 57] | 5.53 | 6.39 |  | 6.06
CC(C)OC(=O)Nc1cnc2nc(-c3cc(NC(=O)C(C)OCC(F)(F)F)ccc3Cl)cn2c1 (stereo not shown) [Compound 58] | 4.98 | 5.34 |  | 4.85
Cc1nc(C(=O)Nc2ccc(Cl)c(-c3cn4cc(NC(=O)OC(C)C)cnc4n3)c2)c[nH]1 [Compound 59] | < 4.30 | < 4.70 |  | < 4.60
CC(C)OC(=O)Nc1cnc2nc(-c3cc(NC(=O)c4ccc(F)o4)ccc3F)cn2c1 [Compound 63] | 6.65 | 6.91 |  | 7.05
CC(C)OC(=O)Nc1cnc2nc(-c3cc(NC(=O)c4ccc(F)s4)ccc3F)cn2c1 [Compound 67] | 5.95 | 6.87 |  | 6.17
Cc1cc(C(=O)Nc2ccc(F)c(-c3cn4cc(NC(=O)OC(C)C)cnc4n3)c2)n[nH]1 [Compound 77] | < 4.30 | < 4.70 |  | 5.03
CC(C)OC(=O)Nc1cnc2nc(-c3cc(NC(=O)[C@@H](N)c4ccccc4)ccc3F)cn2c1 [Compound 84] | 5.00 | 5.06 |  | < 4.60
CC(C)OC(=O)Nc1cnc2nc(-c3cc(NC(=O)c4ncc[nH]4)ccc3F)cn2c1 [Compound 92] | < 4.54 | < 4.70 |  | < 4.60
CC(C)OC(=O)Nc1cnc2nc(-c3cc(NC(=O)c4cnc(C5CC5)o4)ccc3F)cn2c1 [Compound 108] | 5.62 | 5.92 |  | 6.11
Cc1cnoc1C(=O)Nc1ccc(F)c(-c2cn3cc(NC(=O)OC(C)C)cnc3n2)c1 [Compound 111] | < 4.30 | < 4.70 |  | < 4.60
Cc1nc(C)c(C(=O)Nc2ccc(F)c(-c3cn4cc(NC(=O)C5CCCCO5)cnc4n3)c2)o1 (stereo not shown) [Compound 151] | 6.37 | 6.23 |  | 6.87
Cc1nc(C)c(C(=O)Nc2ccc(F)c(-c3cn4cc(NC(=O)c5ccc(F)cn5)cnc4n3)c2)o1 [Compound 187] | < 4.30 | 6.85 |  | 7.51
O=C(Nc1ccc(F)c(-c2cn3cc(Nc4ncccc4C(F)(F)F)cnc3n2)c1)N1CCCC1 [Compound 191] | 6.84 | 7.48 |  | 7.55
CC(C)OC(=O)Nc1cnc2nc(-c3cc(NC(=O)N4CCN(C)CC4)ccc3Cl)cn2c1 [Compound 218] | 4.50 | < 4.70 |  | < 4.60
CNC(=O)Nc1ccc(F)c(-c2cn3cc(NC(=O)OC(C)C)cnc3n2)c1 [Compound 220] | 5.30 | 5.86 |  | 6.22
CC(C)OC(=O)Nc1cnc2nc(-c3cc(NC(=O)N4CCC[C@H]4C(N)=O)ccc3Cl)cn2c1 [Compound 262] | < 4.30 | < 4.70 |  | < 4.60
CC(C)OC(=O)Nc1cnc2nc(-c3cc(NC(=O)N4CCC(NC(=O)OC(C)(C)C)C4)ccc3Cl)cn2c1 (stereo not shown) [Compound 268] | 4.84 | 4.97 |  | < 4.60

Structure (SMILES) | pEC50 [1] | pEC50 [2, 4] | pEC50 ([2]; NIH3T3, 144 h, T. cruzi amastigotes in 3T3 cells, 6 day incubation, read-out: EC50) | pEC50 [3]
CC(C)OC(=O)Nc1cnc2nc(-c3cc(NC(=O)N4CCCC4C)ccc3Cl)cn2c1 (stereo not shown) [Compound 272] | 5.47 | 5.89 |  | 5.77
CC(C)OC(=O)Nc1cnc2nc(-c3cc(NC(=O)N4CCC(N5CCOCC5)C4)ccc3Cl)cn2c1 (stereo not shown) [Compound 273] | < 4.30 | < 4.70 |  | < 4.60
CC(C)NC(=O)Nc1ccc(Cl)c(-c2cn3cc(NC(=O)OC(C)C)cnc3n2)c1 [Compound 277] | 4.97 | 5.41 |  | 5.16
CC(C)OC(=O)Nc1cnc2nc(-c3cc(NC(=O)N4CCC4)ccc3Cl)cn2c1 [Compound 278] | 5.97 | 5.96 |  | 6.75
CC(C)OC(=O)Nc1cnc2nc(-c3cc(NC(=O)N4CC(=O)C4)ccc3Cl)cn2c1 [Compound 279] | 5.02 | < 4.76 |  | 5.61
CC(C)OC(=O)Nc1cnc2nc(-c3cc(NC(=O)N4CCC(C)(C(=O)O)C4)ccc3Cl)cn2c1 (stereo not shown) [Compound 280] | < 4.38 | < 4.70 |  | < 4.60
CC(C)OC(=O)Nc1cnc2nc(-c3cc(NC(=O)N4CCC(=O)C4)ccc3Cl)cn2c1 [Compound 281] | < 4.43 | < 4.70 |  | 5.06
CC(C)OC(=O)Nc1cnc2nc(-c3cc(NC(=O)N4CCCC4(C)C)ccc3Cl)cn2c1 [Compound 282] | 5.00 | 5.13 |  | < 4.60
CC(C)OC(=O)Nc1cnc2nc(-c3cc(NC(=O)N4CC(F)C4)ccc3Cl)cn2c1 [Compound 283] | 6.14 | 5.88 |  | 6.61
COC1CC(NC(=O)Nc2ccc(Cl)c(-c3cn4cc(NC(=O)OC(C)C)cnc4n3)c2)C1 (stereo not shown) [Compound 284] | 4.77 | 4.89 |  | < 4.60
CC(C)OC(=O)Nc1cnc2nc(-c3cc(NC(=O)NC4CC4)ccc3Cl)cn2c1 [Compound 285] | 4.79 | 5.30 |  | 4.93
CC(C)OC(=O)Nc1cnc2nc(-c3cc(NC(=O)N4CC(N(C)C(=O)OC(C)(C)C)C4)ccc3F)cn2c1 [Compound 293] | < 4.42 | < 4.78 |  | < 4.60
CC(C)OC(=O)Nc1cnc2nc(-c3cc(NC(=O)N4CC5(COC5)C4)ccc3F)cn2c1 [Compound 294] | < 4.35 | < 4.70 |  | < 4.60
CC(C)OC(=O)Nc1ccc(F)c(-c2cn3cc(NC(=O)OC(C)C)cnc3n2)c1 [Compound 302] | 6.23 | 6.87 |  | 6.52
COCCOC(=O)Nc1ccc(F)c(-c2cn3cc(NC(=O)OC(C)C)cnc3n2)c1 [Compound 303] | < 4.30 | 4.75 |  | < 4.69
O=C(Nc1ccc(F)c(-c2cn3cc(-c4ccccc4)cnc3n2)c1)N1CCC1 [Compound 321] | 7.82 | 8.30 |  | 8.10
CN(CC(F)(F)F)C(=O)Nc1ccc(F)c(-c2cn3cc(C4=CCOCC4)cnc3n2)c1 [Compound 326] | 6.30 | 6.91 |  | 6.80
Cc1nc(C)c(C(=O)Nc2ccc(F)c(-c3cn4cc(-c5ccccc5)cnc4n3)c2)o1 [Compound 333] | 7.06 | 7.80 |  | 7.06
Cc1nc(C)c(C(=O)Nc2ccc(F)c(-c3cn4cc(C5=CCOCC5)cnc4n3)c2)o1 [Compound 334] | 7.07 | 7.19 |  | 7.28
CC(C)(C)OC(=O)N1CC=C(c2cnc3nc(-c4cc(NC(=O)N5CCCC5)ccc4Cl)cn3c2)CC1 [Compound 343, tert-butyl 4-(2-(2-chloro-5-(pyrrolidine-1-carboxamido)phenyl)imidazo[1,2-a]pyrimidin-6-yl)-5,6-dihydropyridine-1(2H)-carboxylate] | 6.51 | 7.13 |  | 6.97
C[Si](C)(C)CCOCn1cnc(-c2cnc3nc(-c4cc(NC(=O)N5CCCC5)ccc4Cl)cn3c2)c1 [Compound 344] | 6.80 | 7.29 |  | 7.14
C=C(c1ccccc1)c1cnc2nc(-c3cc(NC(=O)c4oc(C)nc4C)ccc3F)cn2c1 [Compound 346] | 6.31 | 6.80 |  | 6.45
Cc1nc(C)c(C(=O)Nc2ccc(F)c(-c3cn4cc(C5=CCN(C(=O)OC(C)(C)C)CC5)cnc4n3)c2)o1 [Compound 347] | 6.82 | 7.00 |  | 6.81
CNc1ccc(-c2cnc3nc(-c4cc(NC(=O)N5CCCC5)ccc4F)cn3c2)cc1 [Compound 351] | 6.89 | 7.02 |  | 7.15
